The source of these data is article PMC10936602, “BaiJ and BaiB are key enzymes in the chenodeoxycholic acid 7α-dehydroxylation pathway in the gut microbe Clostridium scindens ATCC 35704” (Gut Microbes, 2024).

The target of one experiment is T1, BaiB ([Clostridium] scindens, UniProt A0A494WIV0).
T1 construct: recombinant in E. coli BL21-CodonPlus(DE3)-RIPL, pET28b+ or modified pET28b+, His and/or Strep tag
T1 sequence (A0A494WIV0 1-507): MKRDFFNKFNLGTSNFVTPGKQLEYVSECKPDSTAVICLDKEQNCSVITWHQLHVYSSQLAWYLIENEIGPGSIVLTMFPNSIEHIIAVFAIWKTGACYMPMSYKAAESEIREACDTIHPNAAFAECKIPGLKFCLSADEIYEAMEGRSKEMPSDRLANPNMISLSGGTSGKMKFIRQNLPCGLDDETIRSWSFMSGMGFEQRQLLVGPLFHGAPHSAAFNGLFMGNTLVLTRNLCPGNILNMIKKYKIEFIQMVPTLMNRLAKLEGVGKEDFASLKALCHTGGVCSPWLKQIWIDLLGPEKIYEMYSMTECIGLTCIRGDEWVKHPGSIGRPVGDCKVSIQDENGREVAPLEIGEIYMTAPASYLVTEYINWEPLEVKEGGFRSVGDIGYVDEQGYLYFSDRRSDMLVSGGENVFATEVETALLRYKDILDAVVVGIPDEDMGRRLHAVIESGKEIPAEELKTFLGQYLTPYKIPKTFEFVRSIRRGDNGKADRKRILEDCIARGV
Kind of experiment: LC/HRMS substrate depletion and detection of CoA conjugate. As to conditions: CoA ligation; CoA and ATP; HEPES pH 7.5, anoxic, 18 h. The format is biochemical.

Another experiment concerns the target T2, BaiJ ([Clostridium] scindens, UniProt B0NCC6).
T2 construct: gene urdA; recombinant in E. coli BL21-CodonPlus(DE3)-RIPL, pET28b+ or modified pET28b+, His and/or Strep tag, FAD and FMN added before lysis
T2 sequence (B0NCC6 1-563): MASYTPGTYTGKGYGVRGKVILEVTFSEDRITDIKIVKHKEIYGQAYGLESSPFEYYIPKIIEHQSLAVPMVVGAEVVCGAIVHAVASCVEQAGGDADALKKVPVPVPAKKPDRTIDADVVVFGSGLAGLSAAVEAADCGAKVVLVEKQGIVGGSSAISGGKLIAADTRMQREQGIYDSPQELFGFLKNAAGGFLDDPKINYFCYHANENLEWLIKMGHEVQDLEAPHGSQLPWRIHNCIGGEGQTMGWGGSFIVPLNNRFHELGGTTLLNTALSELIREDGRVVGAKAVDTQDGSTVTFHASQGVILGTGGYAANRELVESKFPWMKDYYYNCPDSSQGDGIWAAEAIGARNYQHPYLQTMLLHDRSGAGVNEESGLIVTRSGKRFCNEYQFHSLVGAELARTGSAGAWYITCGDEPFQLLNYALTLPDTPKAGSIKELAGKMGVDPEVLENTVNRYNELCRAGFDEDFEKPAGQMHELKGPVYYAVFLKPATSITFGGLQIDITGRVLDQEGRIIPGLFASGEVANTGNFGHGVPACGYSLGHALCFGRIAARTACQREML
Kind of experiment: LC/HRMS product quantification, single enzyme. The format is biochemical. As to conditions: reduction; NAD, NADP, NADH, NADPH, FMN, FAD, CoA, ATP, ADP 500 μM each; HEPES pH 7.5, 37 °C, anoxic.

The structures appear in SMILES notation.

In the case of `C[C@H](CCC(=O)O)[C@H]1CC[C@H]2[C@@H]3[C@H](O)CC4=CC(=O)CC[C@]4(C)[C@H]3CC[C@]12C` [3-oxo-Δ^4-CDCA], on BaiB, the “LC/HRMS substrate depletion and detection of CoA conjugate” value is “the concentration of 3-oxo-Δ^4-CDCA decreased significantly in the reaction with BaiB”.

In the case of `C[C@H](CCC(=O)O)[C@H]1CC[C@H]2[C@@H]3CCC4=CC(=O)CC[C@]4(C)[C@H]3CC[C@]12C` [3-oxo-Δ^4-LCA], the “LC/HRMS product quantification, single enzyme” value at BaiJ is “BaiJ reduces 3-oxo-Δ^4-LCA and forms 3-oxo-allo-LCA as the only reduced product”.
